What was measured:
Experiment in all cases: relative viability (nuclei count vs DMSO), 5 days (fraction); higher = more cells survive
NCI-H522 = test system: NCI-H522
How it was run: (§1)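 Medians of duplicate plates are given as relative viability. That measure is the nuclei count in treated wells divided by the count in vehicle wells. Counts were taken on 4× images of lung cancer cell lines in 1536-well plates, 5 days after pin-tool dosing the day after seeding with one drug alone or a fixed anchor-drug dose plus five library-drug doses (not always all listed) in √10 steps.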

BEN = test system: BEN
How it was run: as §1

HCC-15 = test system: HCC-15
How it was run: as §1

201T = test system: 201T
How it was run: as §1

NCI-H1651 = test system: NCI-H1651
How it was run: as §1

NCI-H838 = test system: NCI-H838
How it was run: as §1

NCI-H322M = test system: NCI-H322M
How it was run: as §1

PC-3 [JPC-3] = test system: PC-3 [JPC-3]
How it was run: as §1

EMC-BAC-2 = test system: EMC-BAC-2
How it was run: as §1

LK-2 = test system: LK-2
How it was run: as §1

NCI-H358 = test system: NCI-H358
How it was run: as §1

Structure (SMILES): Cc1cn(-c2cc(NC(=O)c3ccc(C)c(Nc4nccc(-c5cccnc5)n4)c3)cc(C(F)(F)F)c2)cn1 [Nilotinib] + O=C(c1cc(Cc2n[nH]c(=O)c3ccccc23)ccc1F)N1CCN(C(=O)C2CC2)CC1 [Olaparib] (partner 8 µM)
- relative viability (NCI-H522; first compound 0.01 µM): 0.66
- relative viability (NCI-H522; first compound 0.03162 µM): 0.625
- relative viability (NCI-H522; first compound 0.1 µM): 0.565
- relative viability (BEN; first compound 0.001 µM): 1.11
- relative viability (BEN; first compound 0.003162 µM): 1.1
- relative viability (BEN; first compound 0.01 µM): 1.25
- relative viability (BEN; first compound 0.03162 µM): 0.996
- relative viability (BEN; first compound 0.1 µM): 1
- relative viability (HCC-15; first compound 0.001 µM): 0.612
- relative viability (HCC-15; first compound 0.003162 µM): 0.778
- relative viability (HCC-15; first compound 0.01 µM): 0.734
- relative viability (HCC-15; first compound 0.03162 µM): 0.692
- relative viability (HCC-15; first compound 0.1 µM): 0.638
- relative viability (201T; first compound 0.001 µM): 0.843
- relative viability (201T; first compound 0.003162 µM): 0.876
- relative viability (201T; first compound 0.01 µM): 0.959
- relative viability (201T; first compound 0.03162 µM): 0.935
- relative viability (201T; first compound 0.1 µM): 0.869
- relative viability (NCI-H1651; first compound 0.001 µM): 0.173
- relative viability (NCI-H1651; first compound 0.003162 µM): 0.187
- relative viability (NCI-H1651; first compound 0.01 µM): 0.168
- relative viability (NCI-H1651; first compound 0.03162 µM): 0.156
- relative viability (NCI-H1651; first compound 0.1 µM): 0.181
- relative viability (NCI-H838; first compound 0.001 µM): 0.789
- relative viability (NCI-H838; first compound 0.003162 µM): 1.01
- relative viability (NCI-H838; first compound 0.01 µM): 0.878
- relative viability (NCI-H838; first compound 0.03162 µM): 0.838
- relative viability (NCI-H838; first compound 0.1 µM): 0.759
- relative viability (NCI-H322M; first compound 0.001 µM): 0.737
- relative viability (NCI-H322M; first compound 0.003162 µM): 0.712
- relative viability (NCI-H322M; first compound 0.01 µM): 0.678
- relative viability (NCI-H322M; first compound 0.03162 µM): 0.556
- relative viability (NCI-H322M; first compound 0.1 µM): 0.818
- relative viability (PC-3 [JPC-3]; first compound 0.001 µM): 1.05
- relative viability (PC-3 [JPC-3]; first compound 0.01 µM): 1.35
- relative viability (PC-3 [JPC-3]; first compound 0.03162 µM): 1.16
- relative viability (PC-3 [JPC-3]; first compound 0.1 µM): 0.829
- relative viability (EMC-BAC-2; first compound 0.001 µM): 0.43
- relative viability (EMC-BAC-2; first compound 0.003162 µM): 0.448
- relative viability (EMC-BAC-2; first compound 0.01 µM): 0.49
- relative viability (EMC-BAC-2; first compound 0.03162 µM): 0.497
- relative viability (EMC-BAC-2; first compound 0.1 µM): 0.521
- relative viability (LK-2; first compound 0.001 µM): 0.673
- relative viability (LK-2; first compound 0.003162 µM): 0.947
- relative viability (LK-2; first compound 0.01 µM): 0.839
- relative viability (LK-2; first compound 0.03162 µM): 0.453
- relative viability (LK-2; first compound 0.1 µM): 0.681
- relative viability (NCI-H358; first compound 0.001 µM): 0.546
- relative viability (NCI-H358; first compound 0.003162 µM): 0.721
- relative viability (NCI-H358; first compound 0.01 µM): 0.813
- relative viability (NCI-H358; first compound 0.03162 µM): 0.52
- relative viability (NCI-H358; first compound 0.1 µM): 0.539
